In brackets after ≈: the same amount, converted by molar mass. Where only a bound is given, the exact number is not on record here.

The conditions of the series: buffer; pH 7.4; 200.0 µM.
For the compound `CC(C)CCC(CCN1CCCC1)c1ccc2c(c1)OCO2.O=C(O)C(=O)O` (configuration not stated), the solubility (kinetic) (commonly the concentration staying in solution when a stock, usually in DMSO, is diluted into the medium) was determined as 48.4 µg/mL.
In the case of `Cc1cc(NS(=O)(=O)c2cccc([N+](=O)[O-])c2)no1` it was 32.5 µg/mL (≈ 115 µM).
To `Cc1c(Cl)cccc1NC(=O)NCc1ccc(C)n1C` belongs 5.3 µg/mL (≈ 18.2 µM); to `O=C(/C=C\N1CCOCC1)c1ccc(Br)cc1`, over 44.4 µg/mL.
For the compound `CC1CCCC(NC(=O)COC(=O)c2ccc3c(c2)OCCO3)C1C` (configuration not stated), the solubility (kinetic) is 5.3 µg/mL (≈ 15.3 µM).
To `CCN(CC)C(=O)Oc1cc(COC)nc(-c2ccccc2)n1` belongs 39.5 µg/mL (≈ 125 µM); to `CCN1CCCC1CNC(=O)C(=O)NC(C)C` (configuration not stated), over 36.2 µg/mL.
In the case of `CCc1nc2ccccc2n1CC(O)COCC1CC=CCC1` (configuration not stated) it was over 47.2 µg/mL; in that of `O=c1oc(-c2ccccc2F)nc2scc(-c3ccccc3)c12`, under 0.7 µg/mL.
In the case of `COc1ccccc1C(=O)Nc1nsc(-c2ccccc2)n1`, the kinetic solubility is 8.8 µg/mL (≈ 28.3 µM).
To `Cc1cc(C)nc(SCC(=O)c2ccc(F)c(C)c2)n1` belongs 14.7 µg/mL (≈ 50.6 µM); to `O=C(CCCc1ccccc1)NCc1ccccn1`, 29.2 µg/mL (≈ 115 µM).
`CC(C)(CN1CCCC1)NS(=O)(=O)c1ccccc1.Cl` displayed a solubility (kinetic) of over 47.8 µg/mL.
To `COC(=O)C1CCN(c2cc(Cl)nc(N)n2)CC1` belongs 24.5 µg/mL (≈ 90.5 µM).
In the case of `CC(C)(C)N(Cc1ccccc1)C(=O)COC(=O)C1CCCCC1` it was 24.4 µg/mL (≈ 73.6 µM); in that of `O=C(NCCNc1ccccc1[N+](=O)[O-])c1ccccc1F`, over 45.5 µg/mL.
To `C=CCNC(=O)c1ccccc1CCc1ccccc1` belongs over 39.8 µg/mL; to `CCOc1cc(CC(=O)N[C@@H](CC(C)C)c2ccccc2N2CCCCC2)ccc1C(=O)O`, over 67.9 µg/mL; to `CC(=O)Nc1ccc(CC#N)cc1`, over 26.1 µg/mL.
As for `CCSc1nnc(SCC(=O)Nc2cc(C)on2)s1`, the kinetic solubility is over 47.5 µg/mL.
Consider `COc1ccc(S(=O)(=O)NCCc2ccccc2)cc1OC`, for which the solubility (kinetic) was 39.9 µg/mL (≈ 124 µM).
In the case of `CC1=[N+]([O-])C(C)(C)N(O)C1(C)C` it was over 25.8 µg/mL; in that of `CCn1c2ccccc2c2cc(NC(=O)c3ccc(=O)oc3)ccc21`, 1.2 µg/mL (≈ 3.61 µM); in that of `CC(C)(C)C(=O)OCc1nc(-c2ccc(F)cc2)cs1`, under 0.6 µg/mL.
Turning to `CC12CCC(C(=O)NCc3ccccc3Cl)(OC1=O)C2(C)C` (configuration not stated), the kinetic solubility is over 48.3 µg/mL.
In the case of `CCOc1ccc2oc(C(=O)Nc3cc(C)ccn3)c(C)c2c1` it was 1.2 µg/mL (≈ 3.87 µM); in that of `Cc1cccc(C(=O)NCCC(=O)NCc2ccccc2F)c1`, over 47.2 µg/mL.
Compound `O=C(COc1ccc2c(-c3ccccc3)cc(=O)oc2c1)NC(Cc1c[nH]c2ccccc12)C(=O)O` (configuration not stated) gave a kinetic solubility of over 72.4 µg/mL.
As to `Clc1ccc(N=C2SCCS2)cc1`, the kinetic solubility was found to be 11 µg/mL (≈ 47.9 µM).
To `O=C(O)CC(Cc1ccc(Cl)cc1)C(=O)Nc1cc(Cl)ccc1Cl` (configuration not stated) belongs 42.1 µg/mL (≈ 109 µM); to `O=C(NCCCn1ccnc1)c1ccc2ccccc2c1`, 34.8 µg/mL (≈ 125 µM); to `CSCC(=O)NC1CCCN(C2Cc3ccccc3C2)C1` (configuration not stated), 44.1 µg/mL (≈ 145 µM).
Regarding `CN(CCC#N)S(=O)(=O)c1cc2c3c(c1)CCN3C(=O)CC2`, the solubility (kinetic) was over 47.9 µg/mL.
In the case of `COc1ccc(CNC(=O)C(Cc2ccccc2)n2cccc2)cc1` (configuration not stated) it was 7.8 µg/mL (≈ 23.3 µM); in that of `CCOC(=O)c1cn2nc(Oc3cccc(F)c3)ccc2n1`, over 45.2 µg/mL.
In the case of `Cc1nn(CC(=O)N(CC(C)C)C2CCS(=O)(=O)C2)c(C)c1[N+](=O)[O-]` (configuration not stated) it was over 55.9 µg/mL; in that of `Cc1cccc(C(=O)OCC(=O)NCC2COc3ccccc3O2)c1` (configuration not stated), 5.9 µg/mL (≈ 17.3 µM); in that of `COc1ccc2oc(=N)c(C(=O)Nc3ccccc3Cl)cc2c1`, 0.8 µg/mL (≈ 2.43 µM).
On to `CCc1ccc2c(CN3CCN(S(=O)(=O)c4ccccc4F)CC3)cc(=O)oc2c1`, for which the solubility (kinetic) came to 3.4 µg/mL (≈ 7.9 µM).
In the case of `N#Cc1ccc(NC(=O)CN2CCN(c3ccccn3)CC2)cc1` it was 16.4 µg/mL (≈ 51 µM).
To `O=C1CN(S(=O)(=O)c2ccccc2Cl)CCN1` belongs over 41.2 µg/mL; to `CCc1cccc(C)c1NC(=S)N(CCOC)C(C)c1ccco1` (configuration not stated), 25.8 µg/mL (≈ 74.5 µM).
In the case of `COc1ccc2c(COC(=O)CNS(=O)(=O)c3ccccc3)cc(=O)oc2c1` it was 46 µg/mL (≈ 114 µM); in that of `CCCCNC(=O)C(=O)NCc1ccncc1`, 32.8 µg/mL (≈ 139 µM).
In the case of `CC(C)CNC(=O)C(=O)NCCCN1CCOCC1`, the kinetic solubility was over 40.7 µg/mL.
`COc1ccc(C(=O)NCC(=O)OCC(=O)NCc2ccco2)cc1` came in with a solubility (kinetic) of over 52 µg/mL.
To `Cc1ccc(NC(=O)N2CCCCCC2)cc1C` belongs over 37 µg/mL.
In the case of `O=C(Nc1nonc1-c1ccc(Cl)cc1)c1ccco1` it was over 43.5 µg/mL; in that of `CC(=O)N1c2ccccc2C(=O)C1N(C)c1ccc(C)cc1` (configuration not stated), 16.9 µg/mL (≈ 57.4 µM); in that of `COc1c(Cl)ccc(Cl)c1C(=O)NC(=S)N1CCOCC1`, over 52.4 µg/mL.
In the case of `NS(=O)(=O)c1cccc(NC(=O)COC(=O)CCC(=O)c2cccs2)c1` it was over 59.5 µg/mL.
In the case of `COc1cc(CC(=O)OCC(=O)N2CCN(C(=O)c3ccco3)CC2)cc(OC)c1OC`, the solubility (kinetic) was over 67 µg/mL.

For the origin of these results see PubChem BioAssay AID1996.
